In US7759351B2, “Oxazolidinone compounds, and compositions and methods related thereto” (Ferrer Internacional, S.A., priority 2005, dated 2010):
In brackets after ≈: the same amount, converted by molar mass. Read-outs that look alike come from different tables or passages of the source. Values belong to the compound of their own block, whether it stands above or below them.

Key:
[1] = tested on: S. aureus ATCC 25923 MS 319; assay: MIC, standard microdilution method (NCCLS M7-A5); type: cell-based, Staphylococcus aureus; details: for MIC: Staphylococcus aureus, ATCC25923, read-out: In vitro activities against bacteria, MIC
[2] = tested on: S. aureus ATCC 43300 MR 214; assay: MIC, standard microdilution method (NCCLS M7-A5); type: cell-based, Staphylococcus aureus; details: for MIC: Staphylococcus aureus, ATCC43300, read-out: In vitro activities against bacteria, MIC
[3] = tested on: S. epidermidis ATCC 12228 MR 11; assay: microbe, parasite or virus in culture; type: cell-based, Staphylococcus epidermidis; details: for MIC: Staphylococcus epidermidis, ATCC12228, read-out: In vitro activities against bacteria, MIC
[4] = tested on: S. pneumoniae ATCC 49619 PR 215; assay: MIC, standard microdilution method (NCCLS M7-A5); type: cell-based, Streptococcus pneumoniae; details: for MIC: Streptococcus pneumoniae, ATCC49619, read-out: In vitro activities against bacteria, MIC
human MAO-A = biological target: T1, human MAO-A (Homo sapiens, UniProt P21397); assay: In vitro MAO-A enzymatic activity (kynuramine substrate, fluorescence); type: biochemical; details: compound at 10 μM
T1 construct: purchased Gentest, BD, USA; host or cells: SF9 insect cells (membranes)
T1 sequence (P21397 1-527): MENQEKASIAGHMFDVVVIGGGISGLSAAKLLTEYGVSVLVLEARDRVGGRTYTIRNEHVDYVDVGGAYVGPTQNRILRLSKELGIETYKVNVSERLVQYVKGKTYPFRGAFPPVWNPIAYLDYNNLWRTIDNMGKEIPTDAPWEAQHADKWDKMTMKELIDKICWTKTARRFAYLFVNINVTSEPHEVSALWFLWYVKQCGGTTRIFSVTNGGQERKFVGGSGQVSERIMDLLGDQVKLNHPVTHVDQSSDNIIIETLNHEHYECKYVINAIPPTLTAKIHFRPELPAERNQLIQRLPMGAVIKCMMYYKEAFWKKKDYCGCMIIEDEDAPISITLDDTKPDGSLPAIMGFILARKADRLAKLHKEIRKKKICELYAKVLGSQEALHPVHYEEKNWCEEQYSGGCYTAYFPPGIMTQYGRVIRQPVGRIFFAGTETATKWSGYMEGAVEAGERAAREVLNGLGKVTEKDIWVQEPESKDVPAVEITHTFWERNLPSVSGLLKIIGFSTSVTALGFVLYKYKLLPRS

human MAO-B = biological target: T2, human MAO-B (Homo sapiens, UniProt P27338); assay: In vitro MAO-B enzymatic activity (kynuramine substrate, fluorescence); type: biochemical; details: human MAO-B, compound at 1 μM
T2 construct: purchased Gentest, BD, USA; host or cells: SF9 insect cells (membranes)
T2 sequence (P27338 1-520): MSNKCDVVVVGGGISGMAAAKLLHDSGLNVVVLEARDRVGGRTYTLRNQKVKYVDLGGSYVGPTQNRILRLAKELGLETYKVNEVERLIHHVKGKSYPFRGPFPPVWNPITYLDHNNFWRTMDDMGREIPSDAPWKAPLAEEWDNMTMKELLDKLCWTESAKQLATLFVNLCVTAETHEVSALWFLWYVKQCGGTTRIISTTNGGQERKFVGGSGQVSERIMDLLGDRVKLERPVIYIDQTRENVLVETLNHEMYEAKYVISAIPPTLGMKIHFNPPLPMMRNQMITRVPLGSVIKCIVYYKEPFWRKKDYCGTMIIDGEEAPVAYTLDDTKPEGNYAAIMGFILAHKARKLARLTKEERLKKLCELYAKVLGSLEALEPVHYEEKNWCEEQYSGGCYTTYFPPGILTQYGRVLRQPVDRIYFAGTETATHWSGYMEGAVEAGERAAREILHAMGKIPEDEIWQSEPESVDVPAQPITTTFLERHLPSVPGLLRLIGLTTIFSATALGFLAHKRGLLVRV

Staphylococcus = assay: Selective activity: geometric mean MIC in Staphylococcus; type: cell-based; details: for Geometric Mean MIC Staphylococcus / MIC: geometric mean over Staphylococcus strains; for Selectivity Enterococcus/Staphylococcus: ratio of geometric mean MIC Enterococcus to geometric mean MIC Staphylococcus
Enterococcus = assay: Selective activity: geometric mean MIC in Enterococcus; type: cell-based; details: geometric mean over Enterococcus strains
[5] = tested on: Moxorella, Pasteurella and Bacteroides spp.; details: background literature; cited from earlier work
[6] = S. epidermidis ATCC 12228 MR 11
[7] = S. pneumoniae ATCC 49619 PR 215
[8] = listed as Comparartive Example 1

- Geometric Mean MIC Staphylococcus (Staphylococcus): 0.6 µg/mL
- Geometric Mean MIC Enterococcus (Enterococcus): 5.0
SMILES: COc1ccc2cc(C(=O)NC[C@H]3CN(c4ccc(N5CCN(C(=O)CO)CC5)c(F)c4)C(=O)O3)c(C)nc2c1 [Ex. 35]
- Selectivity Enterococcus/Staphylococcus (Staphylococcus): 8.3

- Geometric Mean MIC Staphylococcus (Staphylococcus): 5.7 µg/mL
- Geometric Mean MIC Enterococcus (Enterococcus; [8]): 4.8 µg/mL
SMILES: COc1ccc2cc(C(=O)NC[C@H]3CN(c4ccc(N5CCOCC5)c(F)c4)C(=O)O3)c(C)nc2c1 [compound 1, reference compound]
- Selectivity Enterococcus/Staphylococcus (Staphylococcus; [8]): 0.8

- Geometric Mean MIC Staphylococcus (Staphylococcus): 1.7 µg/mL
- Geometric Mean MIC Enterococcus (Enterococcus): 32 µg/mL
SMILES: COc1ccc2cc(C(=O)NC[C@H]3CN(c4ccc(N5CCN(C(=O)C6=NNC(=O)CC6)CC5)c(F)c4)C(=O)O3)c(C)nc2c1 [Ex. 29]
- Selectivity Enterococcus/Staphylococcus (Staphylococcus): 18.8

- MIC (Staphylococcus): 0.4 µg/mL (≈ 0.747 µM)
- Geometric Mean MIC Enterococcus (Enterococcus): 5.7 µg/mL
SMILES: COc1ccc2cc(C(=O)NC[C@H]3CN(c4ccc(N5CCN(C(C)=O)CC5)c(F)c4)C(=O)O3)c(C)nc2c1 [Ex. 3, 7-methoxy-2-methyl-N-[[(5S)-3-[3-fluoro-4-(4′-acetyl-4-piperazinyl)-phenyl]-2-oxo-5-oxazolidinyl]methyl]-3-quinolinecarboxamide]
- Selectivity Enterococcus/Staphylococcus (Staphylococcus): 14.3

- Geometric Mean MIC Staphylococcus (Staphylococcus): 0.6 µg/mL
- Geometric Mean MIC Enterococcus (Enterococcus): 16 µg/mL
SMILES: C=CC(=O)N1CCN(c2ccc(N3C[C@H](CNC(=O)c4cc5ccc(OC)cc5nc4C)OC3=O)cc2F)CC1 [Ex. 24]
- Selectivity Enterococcus/Staphylococcus (Staphylococcus): 27.0

- MIC (Staphylococcus): 0.6 µg/mL (≈ 1.21 µM)
- Geometric Mean MIC Enterococcus (Enterococcus): 5.7 µg/mL
SMILES: COc1ccc2cc(C(=O)NC[C@H]3CN(c4ccc(N5CCOCC5)c(F)c4)C(=O)O3)c(C)nc2c1 [Ex. 1, 7-methoxy-2-methyl-N-[[(5S)-3-[3-fluoro-4-(4-morpholinyl)phenyl]-2-oxo-5-oxazolidinyl]methyl]-3-quinolinecarboxamide]
- Selectivity Enterococcus/Staphylococcus (Staphylococcus): 9.5

Continued, compound first:

SMILES: COc1ccc2cc(C(=O)NC[C@H]3CN(c4ccc(N5CCN(C(=O)C6CC6)CC5)c(F)c4)C(=O)O3)c(C)nc2c1 [Ex. 34]
- In vitro activities against bacteria, MIC ([1]; S. aureus ATCC 25923 MS 319): 0.50 µg/mL
- In vitro activities against bacteria, MIC ([2]; S. aureus ATCC 43300 MR 214): 0.50 µg/mL
- In vitro activities against bacteria, MIC [3, 6]: 0.50 µg/mL
- In vitro activities against bacteria, MIC [4, 7]: 0.50 µg/mL
- MAO-A % inh (10 μM) (human MAO-A): 7%
- MAO-B % inh (1 μM) (human MAO-B): 8%
- Geometric Mean MIC Staphylococcus (Staphylococcus): 0.4 µg/mL
- Selectivity Enterococcus/Staphylococcus (Staphylococcus): 100
- Geometric Mean MIC Enterococcus (Enterococcus): 40.3 µg/mL

SMILES: CC(=O)NC[C@H]1CN(c2ccc(N3CCOCC3)c(F)c2)C(=O)O1 [Linezolid, N-[[(5S)-3-[3-fluoro-4-(4-morpholinyl)phenyl]-2-oxo-5-oxazolidinyl]methyl]acetamide, reference compound]
- MIC ([1]; S. aureus ATCC 25923 MS 319): 2 µg/mL (≈ 5.93 µM)
- MIC ([2]; S. aureus ATCC 43300 MR 214): 1 µg/mL (≈ 2.96 µM)
- MIC [3]: 1 µg/mL (≈ 2.96 µM)
- MIC [4, 7]: 2 µg/mL (≈ 5.93 µM)
- inhibition at 10 µM (human MAO-A; read-out: MAO-A % inh (10 μM)): 41%
- inhibition at 1 µM (human MAO-B; read-out: MAO-B % inh (1 μM)): 62%
- MIC [5]: 2 to 8 µg/mL

SMILES: COc1ccc2cc(C(=O)NC[C@H]3CN(c4ccc(N5CCS(=O)(=O)CC5)c(F)c4)C(=O)O3)c(C)nc2c1 [Ex. 8, 7-methoxy-2-methyl-N-[[(5S)-3-[3-fluoro-4-(1,1-dioxothiomorpholin-4-yl)-phenyl]-2-oxo-5-oxazolidinyl]methyl]-3-quinolinecarboxamide]
- MIC ([1]; S. aureus ATCC 25923 MS 319): 2 µg/mL (≈ 3.69 µM)
- MIC ([2]; S. aureus ATCC 43300 MR 214): 2 µg/mL (≈ 3.69 µM)
- MIC [3]: 2 µg/mL (≈ 3.69 µM)
- MIC [4, 7]: 1 µg/mL (≈ 1.84 µM)

SMILES: COc1ccc2cc(C(=O)NC[C@H]3CN(c4ccc(N5CCN(C(=O)c6c[nH]cn6)CC5)c(F)c4)C(=O)O3)c(C)nc2c1 [Ex. 31]
- In vitro activities against bacteria, MIC ([1]; S. aureus ATCC 25923 MS 319): 4.00 µg/mL
- In vitro activities against bacteria, MIC ([2]; S. aureus ATCC 43300 MR 214): 2.00 µg/mL
- In vitro activities against bacteria, MIC [3, 6]: 2.00 µg/mL
- In vitro activities against bacteria, MIC [4, 7]: 4.00 µg/mL

SMILES: COc1ccc2cc(C(=O)NC[C@H]3CN(c4ccc(N5CCN(C(=O)c6cccnc6)CC5)c(F)c4)C(=O)O3)c(C)nc2c1 [Ex. 42]
- In vitro activities against bacteria, MIC [1]: 1.00 µg/mL
- In vitro activities against bacteria, MIC [2]: 0.06 µg/mL
- In vitro activities against bacteria, MIC [3]: 0.5 µg/mL
- In vitro activities against bacteria, MIC [4]: 1.00 µg/mL
- MAO-A % inh (10 μM) (human MAO-A): 5%
- MAO-B % inh (1 μM) (human MAO-B): 7%

SMILES: O=C(NC[C@H]1CN(c2ccc(N3CCOCC3)c(F)c2)C(=O)O1)c1cc2cc([N+](=O)[O-])ccc2o1 [Comparative Example 3, reference compound]
- Geometric Mean MIC Staphylococcus (Staphylococcus): 0.8 µg/mL
- Selectivity Enterococcus/Staphylococcus (Staphylococcus): 0.9
- Geometric Mean MIC Enterococcus (Enterococcus): 0.7 µg/mL

SMILES: O=C(NC[C@H]1CN(c2ccc(N3CCOCC3)c(F)c2)C(=O)O1)c1coc2ccccc12 [Comparative Example 2, reference compound]
- Geometric Mean MIC Staphylococcus (Staphylococcus): 12.7 µg/mL
- Selectivity Enterococcus/Staphylococcus (Staphylococcus): 0.3
- Geometric Mean MIC Enterococcus (Enterococcus): 3.4 µg/mL

SMILES: COc1ccc2nc(C)c(C(=O)NC[C@H]3CN(c4ccc(N5CCOCC5)c(F)c4)C(=O)O3)cc2c1 [Ex. 18]
- MIC (Staphylococcus): 1 µg/mL (≈ 2.02 µM)
- Selectivity Enterococcus/Staphylococcus (Staphylococcus): 8.0
- Geometric Mean MIC Enterococcus (Enterococcus): 8 µg/mL
